Laboratory results reported in ChEMBL document CHEMBL1201862, “PubChem BioAssay data set” (2004).
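How tested: cells in 96-well plates exposed to compound for 48 hours at five concentrations. At the GI50, growth is halved.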 Active and inactive are the calls of the source. No stated cut-off is given here; in the data, active = GI50 up to about 1.1 µM and inactive = higher.

Experiments:
Assay in all cases: DTP human tumour cell line panel, 48 h
UACC-62 = tested on: UACC-62
SW-620 = tested on: SW-620
SK-MEL-28 = tested on: SK-MEL-28
OVCAR-8 = tested on: OVCAR-8
PC-3 = tested on: PC-3
MDA-MB-231 = tested on: MDA-MB-231
BT-549 = tested on: BT-549
NCI-H460 = tested on: NCI-H460
MOLT-4 = tested on: MOLT-4
HCT-15 = tested on: HCT-15
SK-MEL-2 = tested on: SK-MEL-2
COLO 205 = tested on: COLO 205
HT-29 = tested on: HT-29
NCI-H522 = tested on: NCI-H522
CAKI-1 = tested on: CAKI-1
786-0 = tested on: 786-0
SK-MEL-5 = tested on: SK-MEL-5
MDA-N = tested on: MDA-N
M14 = tested on: M14
SNB-75 = tested on: SNB-75

SMILES | GI50 (UACC-62) | GI50 (SW-620) | GI50 (SK-MEL-28) | GI50 (OVCAR-8) | GI50 (PC-3) | GI50 (MDA-MB-231) | GI50 (BT-549) | GI50 (NCI-H460) | GI50 (MOLT-4) | GI50 (HCT-15) | GI50 (SK-MEL-2) | GI50 (COLO 205) | GI50 (HT-29) | GI50 (NCI-H522) | GI50 (CAKI-1) | GI50 (786-0) | GI50 (SK-MEL-5) | GI50 (MDA-N) | GI50 (M14) | GI50 (SNB-75)
CCn1cc(C(=O)O)c(=O)c2cc(F)c(N3CCN(CN4C(=O)/C(=N\c5ncc(Cc6cc(OC)c(OC)c(OC)c6)c(N)n5)c5cc(Cl)ccc54)CC3)cc21 | > 100 µM (inactive) | 5.3 µM (inactive) | > 100 µM (inactive) | > 100 µM (inactive) | > 100 µM (inactive) | > 100 µM (inactive) | > 100 µM (inactive) | > 100 µM (inactive) | 0.38 µM (active) | 91.6 µM | > 100 µM (inactive) | > 100 µM (inactive) | > 100 µM (inactive) | > 100 µM (inactive) | > 100 µM (inactive) | > 100 µM (inactive) | > 100 µM (inactive) | 45.5 µM (inactive) | > 100 µM (inactive) | > 100 µM (inactive)
CC1(C)C2CCC1(CS(=O)(=O)Nc1ccccc1)C(=O)C2 (stereo not given) | > 100 µM (inactive) | > 100 µM (inactive) | > 100 µM (inactive) | > 100 µM (inactive) | > 100 µM (inactive) | > 100 µM (inactive) | > 100 µM (inactive) | > 100 µM (inactive) | > 100 µM (inactive) | > 100 µM | > 100 µM (inactive) | > 100 µM (inactive) | > 100 µM (inactive) | > 100 µM (inactive) | > 100 µM (inactive) | > 100 µM (inactive) | > 100 µM (inactive) | > 100 µM (inactive) | > 100 µM (inactive) | 89.9 µM (inactive)
CSc1cc(N)ccc1/N=N/c1ccc(S(N)(=O)=O)cc1 | 15.9 µM (inactive) | 41.7 µM (inactive) | 25.5 µM (inactive) | 22.3 µM (inactive) | 32.7 µM (inactive) | 16.1 µM (inactive) | 6.4 µM (inactive) | 24.2 µM (inactive) | 31.3 µM (inactive) | 21.8 µM | 24.2 µM (inactive) | 25.8 µM (inactive) | 30.3 µM (inactive) | 17.7 µM (inactive) | 36.1 µM (inactive) | 26 µM (inactive) | 15.3 µM (inactive) | 61.7 µM (inactive) | 38.1 µM (inactive) | 15.5 µM (inactive)
COC(=O)c1ccccc1CC1Cc2cc3c(cc2C1=O)CCC3 (stereo not given) | 9.77 µM (inactive) | 3.82 µM (inactive) | 17.8 µM (inactive) | 20.1 µM (inactive) | 11.1 µM (inactive) | 8.85 µM (inactive) | 10.8 µM (inactive) | 29.7 µM (inactive) | 5.11 µM (inactive) | 4.02 µM | 7.87 µM (inactive) | 8.59 µM (inactive) | 8.71 µM (inactive) | 5.28 µM (inactive) | 11.1 µM (inactive) | 16.6 µM (inactive) | 7.83 µM (inactive) | 1.93 µM (inactive) | 10.4 µM (inactive) | 11.4 µM (inactive)
CN(C)CCNC(=O)c1cccc(N(C)C(=O)c2ccccc2)c1[N+](=O)[O-] | > 100 µM (inactive) | > 100 µM (inactive) | > 100 µM (inactive) | > 100 µM (inactive) | > 100 µM (inactive) | > 100 µM (inactive) | > 100 µM (inactive) | > 100 µM (inactive) | > 100 µM (inactive) | > 100 µM | > 100 µM (inactive) | > 10 µM (inactive) | > 100 µM (inactive) | > 100 µM (inactive) | > 100 µM (inactive) | > 100 µM (inactive) | > 100 µM (inactive) | > 100 µM (inactive) | > 100 µM (inactive) | 53.6 µM (inactive)
COc1cc2nc(Nc3cccc(Br)c3)nc(Nc3cccc(Br)c3)c2cc1OC | 18.8 µM (inactive) | 24.2 µM (inactive) | 17.2 µM (inactive) | 16.6 µM (inactive) | 20.4 µM (inactive) | 21.8 µM (inactive) | 17 µM (inactive) | 24.3 µM (inactive) | 20.4 µM (inactive) | 17.7 µM | 18.4 µM (inactive) | 13.9 µM (inactive) | 18.7 µM (inactive) | 16.7 µM (inactive) | 15.7 µM (inactive) | 17.3 µM (inactive) | 17 µM (inactive) | 18.7 µM (inactive) | 18.2 µM (inactive) | 17.3 µM (inactive)
